Measurements: patent publication US10472395B2, “Cyclic peptide analogs and conjugates thereof” (Sirenas LLC, priority 2015, dated 2019)
pIC50: −log10 of the molar value. Numbered stars: 1 amine (or outer) side, 2 acyl side, 3 side chain; on linkers, the order of the positions; unused ones are H or OH. Bridge positions count the residues as written; N and C are the ends. Square brackets hold non-standard residues; d marks the D form. Peptide text beside a SMILES is read from it. ξ: configuration not given here. X10 = C/C(=C\CCCCO[*:2])C(=O)[*:1]; X9 = C/C(=C\CCCO[*:2])C(=O)[*:1]; dNMeF = CN[C@H](Cc1ccccc1)C(=O)O; Ile(3ξ) = CCC(C)[C@H](N)C(=O)O; dHica = CC(C)C[C@@H](O)C(=O)O; dNMeA = CN[C@H](C)C(=O)O; Abu = CC[C@H](N)C(=O)O; Sar = CNCC(=O)O

How the values were obtained:
[1] = test system: BT-474 human mammary gland ductal carcinoma cells; test: Inhibitory response of test compounds against BT-474 cells (Cell Titer-Glo, 72 h); format: cell-based; details: Homo sapiens
Procedure: (§1) BT-474 human mammary gland ductal carcinoma cells were seeded in a clear polystyrene 96-well microculture plate (Corning® Costar® 96-well flat bottom plate, Cat.#3997) in a total volume of 90 μL/well. After 24 hours of incubation in a humidified incubator at 37° C. with 5% CO2 and 95% air, 10 μL of 10×, serially diluted test agents in growth medium were added to each well (10 pt dose response curve, highest concentration 10 μM of test agent). After 72 hours of culture in a humidified incubator at 37° C., in an atmosphere of 5% CO2 and 95% air, the plated cells and Cell Titer-Glo® (Promega G7571) reagents were brought to room temperature to equilibrate for 30 minutes. 100 μL of Cell Titer-Glo® reagent was added to each well. The plate was shaken for two minutes and then left to equilibrate for ten minutes. The media/Cell Titer-Glo® reagent was transferred to a white polystyrene 96-well microculture plate (Corning® Costar® 96-well flat bottom plate, Cat.#3917) before reading luminescence on a Tecan GENios microplate reader.
(§2) Percent inhibition of cell growth was calculated relative to untreated control wells. The IC50 value for the test agents was determined using Prism 6.05 by curve-fitting of the data using the following four parameter-logistic equation:
(§3) [formula] where Top is the maximal % of control absorbance, Bottom is the minimal % of control absorbance at the highest agent concentration, Y is the % of control absorbance, X is the agent concentration, IC50 is the concentration of agent that inhibits cell growth by 50% compared to the control cells, and n is the slope of the curve.

[2] = test system: HCC1954 cells; test: Inhibitory response of test compounds against HCC1954 cells (method analogous to BT-474); format: cell-based; details: Homo sapiens
Procedure: as §1, §2, §3
Inhibitory response of test compounds against HCC1954 cells was determined using a method analogous to that used for BT-474 cells.

| SMILES | pIC50 [1] | pIC50 [2] |
| --- | --- | --- |
| C/C=C(\C)[C@H]1OC(=O)[C@@H](C)NC(=O)[C@H]([C@H](C)CC)NC(=O)CN(C)C(=O)[C@@H](Cc2ccc(Cl)cc2)N(C)C(=O)[C@H](C)NC(=O)[C@@H](CC(C)C)OC(=O)/C(C)=C/C[C@H](OCSC)[C@@H]1C [Compound 61] | > 7.70 | – |
| CCC(C)[C@@H]1NC(=O)CN(C)C(=O)[C@@H](Cc2ccccc2)N(C)C(=O)[C@H](C)NC(=O)[C@@H](CC(C)C)OC(=O)/C(C)=C/CCCCOC(=O)[C@H](CC)NC1=O (some centres unmarked) [Compound 78] ([dHica]A[dNMeF][Sar][Ile(3ξ)][Abu]; linker N-C via X10) | 5.00 to 6.70 | – |
| C/C=C(\C)[C@H]1OC(=O)[C@@H](C)NC(=O)[C@H](C(C)CC)NC(=O)CN(C)C(=O)[C@@H](Cc2ccccc2)N(C)C(=O)[C@H](C)NC(=O)[C@@H](CC(C)C)OC(=O)/C(C)=C/C[C@H](OC(=O)N(C)CCN(C)C(=O)OC(C)(C)C)[C@@H]1C (some centres unmarked) [Compound 93] | > 7.70 | > 7.70 |
| CCC(C)[C@@H]1NC(=O)CN(C)C(=O)[C@@H](Cc2ccccc2)N(C)C(=O)[C@H](C)NC(=O)[C@@H](CC(C)C)OC(=O)/C(C)=C/CCCCOC(=O)[C@@H](C)N(C)C1=O (some centres unmarked) [Compound 14] ([dHica]A[dNMeF][Sar][Ile(3ξ)][dNMeA]; linker N-C via X10) | < 5.00 | – |
| CCC(C)[C@@H]1NC(=O)CN(C)C(=O)[C@@H](Cc2ccccc2)N(C)C(=O)[C@H](C)NC(=O)[C@@H](CC(C)C)OC(=O)/C(C)=C/CCCCOC(=O)[C@@H](C)NC1=O (some centres unmarked) [Compound 13] ([dHica]A[dNMeF][Sar][Ile(3ξ)][dA]; linker N-C via X10) | < 5.00 | – |
| CCC(C)[C@@H]1NC(=O)CN(C)C(=O)[C@@H](Cc2ccccc2)N(C)C(=O)[C@H](C)NC(=O)[C@@H](CC(C)C)OC(=O)/C(C)=C/CCCOC(=O)[C@@H](C)NC1=O (some centres unmarked) [Compound 5] ([dHica]A[dNMeF][Sar][Ile(3ξ)][dA]; linker N-C via X9) | < 5.00 | – |
| C/C=C(\C)[C@H]1OC(=O)[C@@H](C)NC(=O)[C@H]([C@H](C)CC)NC(=O)CN(C)C(=O)[C@@H](Cc2ccccc2)N(C)C(=O)[C@H](C)NC(=O)[C@@H](CC(C)C)OC(=O)/C(C)=C/C[C@H](OC(=O)NCCCOCCOCCOCCCNC(=O)OC(C)(C)C)[C@@H]1C [Compound 106] | > 7.70 | > 7.70 |
| CCC(C)[C@@H]1NC(=O)CN(C)C(=O)[C@@H](Cc2ccccc2)N(C)C(=O)[C@H](C)NC(=O)[C@@H](CC(C)C)OC(=O)/C(C)=C/CCCOC(=O)[C@H](CCCCNC(=O)OC(C)(C)C)NC1=O (some centres unmarked) [Compound 11] | < 5.00 | – |
| C/C=C(\C)[C@H]1OC(=O)[C@@H](CCCCN)NC(=O)[C@H](C(C)CC)NC(=O)CN(C)C(=O)[C@@H](Cc2ccccc2)N(C)C(=O)[C@H](C)NC(=O)[C@@H](CC(C)C)OC(=O)/C(C)=C/C[C@H](O)[C@@H]1C (some centres unmarked) [Compound 84] | 5.00 to 6.70 | 5.00 to 6.70 |
| C/C=C(\C)[C@H]1OC(=O)[C@@H](C)NC(=O)[C@H](C(C)CC)NC(=O)CN(C)C(=O)[C@@H](Cc2ccccc2)N(C)C(=O)[C@H](C)NC(=O)[C@@H](CC(C)C)OC(=O)/C(C)=C/C[C@H](CC(=O)NCCOCCOCCOCCO)[C@@H]1C (some centres unmarked) [Compound 122] | > 7.70 | 6.70 to 7.70 |
| C/C=C(\C)[C@H]1OC(=O)[C@@H](C)NC(=O)[C@H]([C@H](C)CC)NC(=O)CN(C)C(=O)[C@@H](Cc2ccc(Cl)cc2)N(C)C(=O)[C@H](CCCCNC(=O)c2ccc(C(C)=O)cc2)NC(=O)[C@@H](CC(C)C)OC(=O)/C(C)=C/CC[C@@H]1C [Compound 121] | 5.00 to 6.70 | – |
| C/C=C(\C)[C@H]1OC(=O)[C@@H](C)NC(=O)[C@H]([C@H](C)CC)NC(=O)CN(C)C(=O)[C@@H](Cc2ccccc2)N(C)C(=O)[C@H](C)NC(=O)[C@@H](CC(C)C)OC(=O)/C(C)=C/C[C@H](OC(=O)NCCCOCCOCCOCCCNC(=O)c2ccc(C(C)=O)cc2)[C@@H]1C [Compound 116] | > 7.70 | 6.70 to 7.70 |
| C/C=C(\C)[C@H]1OC(=O)[C@@H](C)NC(=O)[C@H]([C@H](C)CC)NC(=O)CN(C)C(=O)[C@@H](Cc2ccc(Cl)cc2)N(C)C(=O)[C@H](CCCCN)NC(=O)[C@@H](CC(C)C)OC(=O)/C(C)=C/CC[C@@H]1C [Compound 118] | 5.00 to 6.70 | 5.00 to 6.70 |
| CCC(C)[C@@H]1NC(=O)CN(C)C(=O)[C@@H](Cc2ccccc2)N(C)C(=O)[C@H](C)NC(=O)[C@@H](CC(C)C)OC(=O)/C(C)=C/CCCCOC(=O)CNC1=O (some centres unmarked) [Compound 79] ([dHica]A[dNMeF][Sar][Ile(3ξ)]G; linker N-C via X10) | < 5.00 | – |
